# Molecular target: P. falciparum apicoplast DNA polymerase (Pf-apPOL) (Plasmodium falciparum, UniProt Q8ILY1)
# Experiment: Fluorescence-based high-throughput DNA polymerase assay (molecular beacon), primary screen and dose-response;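 for % inhibition ApPOL 90': test concentration in µM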;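 for % inhibition Apol 40': compound concentration given in µM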;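 for % inhibition apPOL 180': test concentration in µM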
# Type: biochemical
# Conditions: for DNA Pol: 90 min, 10 µM
# Outline: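 Single-point screening used 10 µM compound with 20 nM polymerase, 20 nM hairpin substrate and 6 µM dNTPs for 90 min at 25 °C. Confirmatory titrations (2.5–80 µM) followed fluorescence at three times, and IC50 was derived from a fit including a cooperativity term n.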
# [1] = "DNA Pol" of the 186 hits list (screen value)
# Chain of P. falciparum apicoplast DNA polymerase (Pf-apPOL) (Q8ILY1 entry or part of it): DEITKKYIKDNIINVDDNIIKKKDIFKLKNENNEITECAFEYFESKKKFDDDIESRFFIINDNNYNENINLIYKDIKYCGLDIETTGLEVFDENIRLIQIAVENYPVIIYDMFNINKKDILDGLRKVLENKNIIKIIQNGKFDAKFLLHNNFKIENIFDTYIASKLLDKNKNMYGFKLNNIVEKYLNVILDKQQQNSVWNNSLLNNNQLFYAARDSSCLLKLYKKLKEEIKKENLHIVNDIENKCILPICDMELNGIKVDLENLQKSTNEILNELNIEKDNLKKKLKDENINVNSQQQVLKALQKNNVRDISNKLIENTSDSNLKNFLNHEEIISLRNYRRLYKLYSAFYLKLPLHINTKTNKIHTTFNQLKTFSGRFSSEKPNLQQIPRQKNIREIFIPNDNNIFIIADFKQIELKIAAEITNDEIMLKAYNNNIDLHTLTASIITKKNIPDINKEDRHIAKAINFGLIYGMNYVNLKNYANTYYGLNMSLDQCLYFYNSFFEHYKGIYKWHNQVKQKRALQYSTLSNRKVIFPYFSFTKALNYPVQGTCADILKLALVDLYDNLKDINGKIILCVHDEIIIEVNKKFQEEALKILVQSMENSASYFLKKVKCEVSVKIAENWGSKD
compound,measurement,setting,value
"Cc1ccc(NC(=O)C2CCN(C(=O)c3cc4ccsc4[nH]3)CC2)c(Br)c1 [Molecule 14, O=C(C1CCN(CC1)C(=O)c1cc2c([nH]1)scc2)Nc1ccc(cc1Br)C]",DNA Pol,[1],67
same,% inhibition Apo pol 10',"DRC-1, concentration 2.5",11%
same,% inhibition Apo pol 10',"DRC-1, concentration 5",36%
same,% inhibition Apo pol 10',"DRC-1, concentration 10",68%
same,% inhibition Apo pol 10',"DRC-1, concentration 20",88%
same,% inhibition Apo pol 10',"DRC-1, concentration 40",87%
same,% inhibition Apo pol 10',"DRC-1, concentration 80",89%
same,% inhibition Apol 90',"DRC-1, concentration 2.5",6%
same,% inhibition Apol 90',"DRC-1, concentration 5",22%
same,% inhibition Apol 90',"DRC-1, concentration 10",48%
same,% inhibition Apol 90',"DRC-1, concentration 20",76%
same,% inhibition Apol 90',"DRC-1, concentration 40",77%
same,% inhibition Apol 90',"DRC-1, concentration 80",84%
same,% inhibition apPOL 180',"DRC-1, concentration 2.5",5%
same,% inhibition apPOL 180',"DRC-1, concentration 5",12%
same,% inhibition apPOL 180',"DRC-1, concentration 10",30%
same,% inhibition apPOL 180',"DRC-1, concentration 20",61%
same,% inhibition apPOL 180',"DRC-1, concentration 40",63%
same,% inhibition apPOL 180',"DRC-1, concentration 80",75%
same,% inhibition Apo pol 5',"DRC-2, concentration 2.5",11%
same,% inhibition Apo pol 5',"DRC-2, concentration 5",22%
same,% inhibition Apo pol 5',"DRC-2, concentration 10",43%
same,% inhibition Apo pol 5',"DRC-2, concentration 20",50%
same,% inhibition Apo pol 5',"DRC-2, concentration 40",54%
same,% inhibition Apo pol 5',"DRC-2, concentration 80",48%
same,% inhibition Apol 40',"DRC-2, concentration 2.5",9%
same,% inhibition Apol 40',"DRC-2, concentration 5",22%
same,% inhibition Apol 40',"DRC-2, concentration 10",49%
same,% inhibition Apol 40',"DRC-2, concentration 20",62%
same,% inhibition Apol 40',"DRC-2, concentration 40",68%
same,% inhibition Apol 40',"DRC-2, concentration 80",67%
same,% inhibition ApPOL 90',"DRC-2, concentration 2.5",8.49%
same,% inhibition ApPOL 90',"DRC-2, concentration 5",18%
same,% inhibition ApPOL 90',"DRC-2, concentration 10",45%
same,% inhibition ApPOL 90',"DRC-2, concentration 20",61%
same,% inhibition ApPOL 90',"DRC-2, concentration 40",68%
same,% inhibition ApPOL 90',"DRC-2, concentration 80",70%
same,% inhibition apPOL 180',"DRC-2, concentration 2.5",2.63%
same,% inhibition apPOL 180',"DRC-2, concentration 5",12%
same,% inhibition apPOL 180',"DRC-2, concentration 10",34%
same,% inhibition apPOL 180',"DRC-2, concentration 20",52%
same,% inhibition apPOL 180',"DRC-2, concentration 40",64%
same,% inhibition apPOL 180',"DRC-2, concentration 80",69%
same,% inhibition Apo pol 10',"first DRC, concentration 2.5",11%
same,% inhibition Apo pol 10',"first DRC, concentration 10",68%
same,% inhibition Apol 90',"first DRC, concentration 5",22%
same,% inhibition Apol 90',"first DRC, concentration 10",48%
same,% inhibition apPOL 180',"first DRC, concentration 5",12%
same,% inhibition apPOL 180',"first DRC, concentration 20",61%
same,DNA Pol,"primary screen value, DNA Pol",67
"O=C(Cc1cc(=O)[nH]c(SCc2ccccc2)n1)Nc1ccc2c(c1)OCO2 [Molecule 46, O=C(Cc1cc(=O)[nH]c(n1)SCc1ccccc1)Nc1ccc2c(c1)OCO2]",DNA Pol,[1],35
same,% inhibition Apo pol 10',"DRC-1, concentration 2.5",-0.9773%
same,% inhibition Apo pol 10',"DRC-1, concentration 5",2.643%
same,% inhibition Apo pol 10',"DRC-1, concentration 10",32.2663%
same,% inhibition Apo pol 10',"DRC-1, concentration 20",58.1636%
same,% inhibition Apo pol 10',"DRC-1, concentration 40",83.7049%
same,% inhibition Apo pol 10',"DRC-1, concentration 80",86.7652%
same,% inhibition Apol 90',"DRC-1, concentration 2.5",-4.834%
same,% inhibition Apol 90',"DRC-1, concentration 5",-3.621%
same,% inhibition Apol 90',"DRC-1, concentration 10",17.8668%
same,% inhibition Apol 90',"DRC-1, concentration 20",43.05%
same,% inhibition Apol 90',"DRC-1, concentration 40",73.6983%
same,% inhibition Apol 90',"DRC-1, concentration 80",82.3218%
same,% inhibition apPOL 180',"DRC-1, concentration 2.5",-11.1217%
same,% inhibition apPOL 180',"DRC-1, concentration 5",-9.027%
same,% inhibition apPOL 180',"DRC-1, concentration 10",5.286%
same,% inhibition apPOL 180',"DRC-1, concentration 20",25.3173%
same,% inhibition apPOL 180',"DRC-1, concentration 40",61.8193%
same,% inhibition apPOL 180',"DRC-1, concentration 80",77.2818%
same,% inhibition Apo pol 5',"DRC-2, concentration 2.5",-0.743%
same,% inhibition Apo pol 5',"DRC-2, concentration 5",-0.197%
same,% inhibition Apo pol 5',"DRC-2, concentration 10",23%
same,% inhibition Apo pol 5',"DRC-2, concentration 20",29%
same,% inhibition Apo pol 5',"DRC-2, concentration 40",27%
same,% inhibition Apo pol 5',"DRC-2, concentration 80",20%
same,% inhibition Apol 40',"DRC-2, concentration 2.5",-1%
same,% inhibition Apol 40',"DRC-2, concentration 5",0.92%
same,% inhibition Apol 40',"DRC-2, concentration 10",30%
same,% inhibition Apol 40',"DRC-2, concentration 20",47%
same,% inhibition Apol 40',"DRC-2, concentration 40",55%
same,% inhibition Apol 40',"DRC-2, concentration 80",53%
same,% inhibition ApPOL 90',"DRC-2, concentration 2.5",-1%
same,% inhibition ApPOL 90',"DRC-2, concentration 5",-0.186%
same,% inhibition ApPOL 90',"DRC-2, concentration 10",27%
same,% inhibition ApPOL 90',"DRC-2, concentration 20",49%
same,% inhibition ApPOL 90',"DRC-2, concentration 40",60%
same,% inhibition ApPOL 90',"DRC-2, concentration 80",61%
same,% inhibition apPOL 180',"DRC-2, concentration 2.5",-5.33%
same,% inhibition apPOL 180',"DRC-2, concentration 5",-9%
same,% inhibition apPOL 180',"DRC-2, concentration 10",17%
same,% inhibition apPOL 180',"DRC-2, concentration 20",41%
same,% inhibition apPOL 180',"DRC-2, concentration 40",62%
same,% inhibition apPOL 180',"DRC-2, concentration 80",67%
same,DNA Pol,"primary screen value, DNA Pol",35
"COc1cccc(Oc2c(C(F)(F)F)oc3cc(OC(=O)N(C)C)ccc3c2=O)c1 [Molecule 52, COc1cccc(c1)Oc1c(=O)c2ccc(cc2oc1C(F)(F)F)OC(=O)N(C)C]",DNA Pol,'DNA Pol' of the 186 hits list (primary screen value),61
same,DNA Pol,DNA Pol (primary screen value),61
same,% inhibition Apo pol 10',"DRC-1, concentration 2.5",6.553%
same,% inhibition Apo pol 10',"DRC-1, concentration 5",12.9509%
same,% inhibition Apo pol 10',"DRC-1, concentration 10",26.9326%
same,% inhibition Apo pol 10',"DRC-1, concentration 20",35.5271%
same,% inhibition Apo pol 10',"DRC-1, concentration 40",51.7019%
same,% inhibition Apo pol 10',"DRC-1, concentration 80",57.2765%
same,% inhibition Apol 90',"DRC-1, concentration 2.5",11.9844%
same,% inhibition Apol 90',"DRC-1, concentration 5",19.0717%
same,% inhibition Apol 90',"DRC-1, concentration 10",34.8904%
same,% inhibition Apol 90',"DRC-1, concentration 20",41.7615%
same,% inhibition Apol 90',"DRC-1, concentration 40",58.6612%
same,% inhibition Apol 90',"DRC-1, concentration 80",63.3235%
same,% inhibition apPOL 180',"DRC-1, concentration 2.5",22.4742%
same,% inhibition apPOL 180',"DRC-1, concentration 5",28.9407%
same,% inhibition apPOL 180',"DRC-1, concentration 10",43.333%
same,% inhibition apPOL 180',"DRC-1, concentration 20",44.974%
same,% inhibition apPOL 180',"DRC-1, concentration 40",65.9617%
same,% inhibition apPOL 180',"DRC-1, concentration 80",64.6101%
same,% inhibition Apo pol 5',"DRC-2, concentration 2.5",15%
same,% inhibition Apo pol 5',"DRC-2, concentration 5",18%
same,% inhibition Apo pol 5',"DRC-2, concentration 10",27%
same,% inhibition Apo pol 5',"DRC-2, concentration 20",32%
same,% inhibition Apo pol 5',"DRC-2, concentration 40",40%
same,% inhibition Apo pol 5',"DRC-2, concentration 80",42%
same,% inhibition Apol 40',"DRC-2, concentration 2.5",14%
same,% inhibition Apol 40',"DRC-2, concentration 5",14%
same,% inhibition Apol 40',"DRC-2, concentration 10",33%
same,% inhibition Apol 40',"DRC-2, concentration 20",41%
same,% inhibition Apol 40',"DRC-2, concentration 40",50%
same,% inhibition Apol 40',"DRC-2, concentration 80",56%
same,% inhibition ApPOL 90',"DRC-2, concentration 2.5",14%
same,% inhibition ApPOL 90',"DRC-2, concentration 5",8%
same,% inhibition ApPOL 90',"DRC-2, concentration 10",33%
same,% inhibition ApPOL 90',"DRC-2, concentration 20",41%
same,% inhibition ApPOL 90',"DRC-2, concentration 40",51%
same,% inhibition ApPOL 90',"DRC-2, concentration 80",58%
same,% inhibition apPOL 180',"DRC-2, concentration 2.5",6.57%
same,% inhibition apPOL 180',"DRC-2, concentration 5",-58%
same,% inhibition apPOL 180',"DRC-2, concentration 10",24%
same,% inhibition apPOL 180',"DRC-2, concentration 20",33%
same,% inhibition apPOL 180',"DRC-2, concentration 40",45%
same,% inhibition apPOL 180',"DRC-2, concentration 80",54%
